Data from patent US6531573B1, “Antifungal and antibacterial peptides” (Trustees of Boston University, priority 1997, dated 2003).

Experiments:
Clostripain = target: T1, Clostripain (Hathewaya histolytica, UniProt P09870); assay: Clostripain inhibition; format: biochemical; details: endopeptidase of Clostridium histolyticum
T1 construct: purchased Sigma Chemical Corp., St. Louis, Mo
Experimental: Clostripain from Clostridium histolyticum (Sigma Chemical Corp., St. Louis, Mo.) is dissolved in deionized water to a concentration of 1 mg/ml (300 units/mg) and activated with the addition of 10 mmol/L DTT. To measure its hydrolytic activity, clostripain ( 6 units) is added to […] Hepes buffer, pH 7.5, containing 80 μmol/L BAPNA (benzoyl-arginine-p-nitroanilide), together with 5.6 μmol/L of histatin peptide inhibitor. As controls, assays are performed in the absence of any histatin peptide inhibitor. The activity is monitored continuously at 405 nm using a Molecular Devices Vmax microtitre plate reader. The activities are determined from the maximum rates of substrate hydrolysis. Assays are done in duplicate, and the means normalized to the controls.

P. gingivalis 381 = details: cited from earlier work

T1 sequence (P09870 191-526): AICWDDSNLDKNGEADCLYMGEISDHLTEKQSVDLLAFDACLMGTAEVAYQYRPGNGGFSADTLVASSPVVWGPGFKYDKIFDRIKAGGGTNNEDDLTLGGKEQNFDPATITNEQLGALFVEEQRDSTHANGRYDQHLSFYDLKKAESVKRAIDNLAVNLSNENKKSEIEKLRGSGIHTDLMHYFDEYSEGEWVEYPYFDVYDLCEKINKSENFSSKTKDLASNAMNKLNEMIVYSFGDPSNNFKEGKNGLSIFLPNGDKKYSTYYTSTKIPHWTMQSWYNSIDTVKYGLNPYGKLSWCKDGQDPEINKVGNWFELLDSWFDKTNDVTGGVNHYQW
T1 sequence (P09870 51-181): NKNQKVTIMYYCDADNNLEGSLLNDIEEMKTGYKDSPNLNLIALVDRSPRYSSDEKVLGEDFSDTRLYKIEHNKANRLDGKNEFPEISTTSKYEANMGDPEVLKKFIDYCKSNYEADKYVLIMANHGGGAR

histatin 5
inhibition of clostripain (in words) (Clostripain): can be inhibited
concentration giving complete hemagglutination inhibition (P. gingivalis 381): 5 nmol/mL
inhibition of hemagglutination (in words) (P. gingivalis 381): inhibit hemagglutination
